Results on two compounds are retold here after patent US10144705B2 (Commissariat a l'energie atomique et aux energies …, priority 2012, dated 2018).

Data set [1] concerns in-vitro cell-based BBB model (coculture of glial cells and brain endothelial cells). In kind it is in vitro ADME. Here is the method:
The in-vitro cell-based BBB model which is used to assess the permeability of fatty esters consists in a coculture of glial cells and brain endothelial cells. A transport buffer (150 mM NaCl, 5.2 mM KCl, 2.2 mM CaCl2, 0.2 mM MgCl2, 6 mM NaHCO3, 2.8 mM glucose and 5 mM Hepes) is added: 1500 μl to the basolateral chamber (which represents the cerebral parenchyma) and 500 μl to the apical chamber (which represents the blood). The fatty esters are introduced in the apical compartment. After 60 min, aliquots are removed from the apical and basolateral chambers for drug-concentration determination. The percentage of drug from the initial dosage that crossed BBB is calculated as follows: P (%)=[(Bf×1500)/(A0×500)]×100 where Bf is the amount of tested compounds in the basolateral compartment at the end point. A0 is the initial amount in the apical compartment at time point 0.

The conditions of data set [2]: cited from earlier work.

Turning to `CCOC(=O)CN(C)C(=N)N` [C2], in data set [1], the “permeability through the blood brain barrier” value was “not” and the “translocation within brain endothelial cells or in the basal compartment” value is recorded as “no translocation”.
Consider `CN(CC(=O)O)C(=N)N` [creatine, 2-1(methylguanidino) acetic acid], for which the oral bioavailability result in data set [2] was “low”.
